Test results: ChEMBL document CHEMBL1201862, “PubChem BioAssay data set” (2004)
Calls of active or inactive are those of the source.

Key:
Mu-type opioid receptor = Mu-type opioid receptor (Homo sapiens, UniProt P35372); format: functional, cell-based;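 also: U2OS cells with beta-arrestin recruitment to OPRM1 by beta-gal complementation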
[1] = target: 5-hydroxytryptamine receptor 2A (Mus musculus, UniProt P35363); format: functional, cell-based;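 also: CHO-K1 cells with tagged receptor and beta-arrestin; agonist potency measured as compound-induced activation of the receptor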
Chain of 5-hydroxytryptamine receptor 2A (P35363 whole entry): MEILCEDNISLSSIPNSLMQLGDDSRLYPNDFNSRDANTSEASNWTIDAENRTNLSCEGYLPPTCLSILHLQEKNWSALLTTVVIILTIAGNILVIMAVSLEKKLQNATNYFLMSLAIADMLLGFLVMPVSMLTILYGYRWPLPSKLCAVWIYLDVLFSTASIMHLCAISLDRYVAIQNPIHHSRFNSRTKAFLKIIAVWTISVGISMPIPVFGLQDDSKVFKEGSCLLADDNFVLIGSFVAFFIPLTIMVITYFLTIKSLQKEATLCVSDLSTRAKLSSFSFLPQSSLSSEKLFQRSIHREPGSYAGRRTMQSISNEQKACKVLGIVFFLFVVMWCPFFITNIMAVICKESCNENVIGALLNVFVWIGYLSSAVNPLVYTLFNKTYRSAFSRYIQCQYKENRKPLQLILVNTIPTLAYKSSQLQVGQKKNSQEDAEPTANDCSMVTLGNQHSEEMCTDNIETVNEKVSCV

[2] = target: T1, Trace amine-associated receptor 1 (Homo sapiens, UniProt Q96RJ0); assay: Fluorescence-based cell-based high throughput dose response assay to identify antagonists of the human trace amine associated receptor 1 (TAAR1).; format: functional
T1 sequence (Q96RJ0 whole entry): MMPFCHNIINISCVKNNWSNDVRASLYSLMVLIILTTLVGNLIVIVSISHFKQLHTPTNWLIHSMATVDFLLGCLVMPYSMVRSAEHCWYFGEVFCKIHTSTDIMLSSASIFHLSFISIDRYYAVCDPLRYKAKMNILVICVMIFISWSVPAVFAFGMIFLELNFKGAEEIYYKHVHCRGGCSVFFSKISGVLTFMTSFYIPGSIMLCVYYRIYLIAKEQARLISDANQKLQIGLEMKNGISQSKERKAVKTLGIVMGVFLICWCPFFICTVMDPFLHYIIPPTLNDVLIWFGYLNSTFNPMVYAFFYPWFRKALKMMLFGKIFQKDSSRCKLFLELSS

[3] = target: T1, Trace amine-associated receptor 1; assay: Counterscreen for antagonists of the human trace amine associated receptor 1 (hTAAR1): Fluorescence-based cell-based high throughput dose response assay to identify TAAR1 Agonists.; format: functional
[4] = Counterscreen for […] of the human trace amine associated receptor 1 (TAAR1): Fluorescence-based cell-based high throughput dose response assay to identify nonselective Ga16 agonists.; format: functional
[5] = Counterscreen for antagonists of the human trace amine associated receptor 1 (hTAAR1): Fluorescence-based cell-based high throughput dose response assay to identify nonselective Ga16 antagonists.; format: functional
[6] = Counterscreen for activators of the function of SWI/SNF related, matrix associated, actin dependent regulator of chromatin, subfamily a, member 2 (SMARCA2, BRM): Luminescence-based cell-based high throughput dose response assay to identify non-selective compounds using the VP16 reporter assay.; format: functional
[7] = target: SWI/SNF-related matrix-associated actin-dependent regulator of chromatin subfamily A member 2 (Homo sapiens, UniProt P51531); assay: Luminescence-based cell-based high throughput dose response assay to identify activators of the function of SWI/SNF related, matrix associated, actin dependent regulator of chromatin, subfamily a, member 2 (SMARCA2, BRM).; format: functional
Chain of SWI/SNF-related matrix-associated actin-dependent regulator of chromatin subfamily A member 2 (P51531 whole entry): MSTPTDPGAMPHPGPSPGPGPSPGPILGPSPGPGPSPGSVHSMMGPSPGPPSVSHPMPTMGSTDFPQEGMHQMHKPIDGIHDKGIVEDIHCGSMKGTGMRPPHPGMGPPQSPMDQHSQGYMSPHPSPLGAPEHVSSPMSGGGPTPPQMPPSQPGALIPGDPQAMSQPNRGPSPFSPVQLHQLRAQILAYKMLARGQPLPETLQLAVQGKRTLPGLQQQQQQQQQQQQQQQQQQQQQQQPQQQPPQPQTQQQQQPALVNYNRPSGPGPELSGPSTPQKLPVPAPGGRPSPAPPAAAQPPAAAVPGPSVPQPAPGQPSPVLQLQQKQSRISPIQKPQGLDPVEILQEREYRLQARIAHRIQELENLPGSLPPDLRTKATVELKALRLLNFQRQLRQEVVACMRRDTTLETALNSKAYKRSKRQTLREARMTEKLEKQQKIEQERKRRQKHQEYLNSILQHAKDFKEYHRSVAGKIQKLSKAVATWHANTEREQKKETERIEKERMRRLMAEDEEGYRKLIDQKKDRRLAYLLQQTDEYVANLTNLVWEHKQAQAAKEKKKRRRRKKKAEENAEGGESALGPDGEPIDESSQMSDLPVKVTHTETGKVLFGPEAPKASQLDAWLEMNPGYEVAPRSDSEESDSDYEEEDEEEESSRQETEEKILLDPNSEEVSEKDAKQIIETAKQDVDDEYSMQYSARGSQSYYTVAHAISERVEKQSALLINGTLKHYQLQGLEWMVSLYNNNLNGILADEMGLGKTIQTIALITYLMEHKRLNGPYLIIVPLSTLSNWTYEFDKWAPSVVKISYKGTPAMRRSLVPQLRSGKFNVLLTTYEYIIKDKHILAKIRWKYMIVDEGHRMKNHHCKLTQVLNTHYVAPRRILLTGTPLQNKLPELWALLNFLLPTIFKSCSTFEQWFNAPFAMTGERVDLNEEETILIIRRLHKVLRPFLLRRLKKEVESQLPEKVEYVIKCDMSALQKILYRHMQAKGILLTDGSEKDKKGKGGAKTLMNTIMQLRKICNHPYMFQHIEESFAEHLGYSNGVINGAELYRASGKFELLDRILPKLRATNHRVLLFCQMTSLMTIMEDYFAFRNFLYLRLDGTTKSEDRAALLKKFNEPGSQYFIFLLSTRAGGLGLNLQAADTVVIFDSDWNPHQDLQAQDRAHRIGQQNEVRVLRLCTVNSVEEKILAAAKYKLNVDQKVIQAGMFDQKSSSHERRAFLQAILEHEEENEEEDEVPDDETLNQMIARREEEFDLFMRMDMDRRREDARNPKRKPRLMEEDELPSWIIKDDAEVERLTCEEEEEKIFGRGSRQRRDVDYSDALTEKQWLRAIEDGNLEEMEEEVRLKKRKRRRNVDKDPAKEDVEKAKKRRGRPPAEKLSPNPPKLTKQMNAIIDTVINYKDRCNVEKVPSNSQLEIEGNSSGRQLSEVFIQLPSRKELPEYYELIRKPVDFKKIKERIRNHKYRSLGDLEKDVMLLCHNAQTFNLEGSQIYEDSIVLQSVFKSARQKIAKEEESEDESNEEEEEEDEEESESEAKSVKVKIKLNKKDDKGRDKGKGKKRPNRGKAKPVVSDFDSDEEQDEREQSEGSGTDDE

[8] = target: T1, Trace amine-associated receptor 1; assay: Fluorescence-based cell-based high throughput dose response assay to identify agonists of the human trace amine associated receptor 1 (TAAR1).; format: functional
[9] = target: T1, Trace amine-associated receptor 1; assay: Counterscreen for agonists of the human trace amine associated receptor 1 (hTAAR1): Fluorescence-based cell-based high throughput dose response assay to identify hTAAR1 agonist that also desensitize TAAR1 receptor response.; format: functional
cells [10] = format: functional, cell-based
[11] = THP-1 cell cytotoxicity, dose response, cytotoxicity control for non-replicating M. tuberculosis project (AID 489025); format: functional
cells [12] = format: functional, cell-based; remark: listed apart in the source
[13] = target: Photoreceptor-specific nuclear receptor (Homo sapiens, UniProt Q9Y5X4); format: functional, cell-based;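 also: CHO-S cells with Gal4-NCOR and VP16-NR2E3 two-hybrid luciferase reporter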
Chain of Photoreceptor-specific nuclear receptor (Q9Y5X4 whole entry, the tested form may be a part): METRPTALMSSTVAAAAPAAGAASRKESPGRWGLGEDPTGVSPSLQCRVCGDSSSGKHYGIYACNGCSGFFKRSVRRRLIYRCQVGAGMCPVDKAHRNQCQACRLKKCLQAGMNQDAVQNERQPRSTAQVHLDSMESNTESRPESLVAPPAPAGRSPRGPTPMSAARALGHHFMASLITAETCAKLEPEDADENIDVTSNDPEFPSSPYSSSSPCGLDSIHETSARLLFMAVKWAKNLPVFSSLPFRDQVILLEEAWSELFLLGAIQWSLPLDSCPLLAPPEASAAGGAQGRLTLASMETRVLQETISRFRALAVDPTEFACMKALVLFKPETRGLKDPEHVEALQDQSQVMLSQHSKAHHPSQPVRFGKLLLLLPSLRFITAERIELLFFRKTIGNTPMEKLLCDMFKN

[14] = target: Glucose-6-phosphate 1-dehydrogenase (Homo sapiens, UniProt P11413); assay: inhibition of Homo sapiens G6PD, dose series – biochemical, fluorescence, selectivity assay for P. falciparum G6PD inhibitor project, dose response (AID 504792); format: functional
Chain of Glucose-6-phosphate 1-dehydrogenase (P11413 whole entry): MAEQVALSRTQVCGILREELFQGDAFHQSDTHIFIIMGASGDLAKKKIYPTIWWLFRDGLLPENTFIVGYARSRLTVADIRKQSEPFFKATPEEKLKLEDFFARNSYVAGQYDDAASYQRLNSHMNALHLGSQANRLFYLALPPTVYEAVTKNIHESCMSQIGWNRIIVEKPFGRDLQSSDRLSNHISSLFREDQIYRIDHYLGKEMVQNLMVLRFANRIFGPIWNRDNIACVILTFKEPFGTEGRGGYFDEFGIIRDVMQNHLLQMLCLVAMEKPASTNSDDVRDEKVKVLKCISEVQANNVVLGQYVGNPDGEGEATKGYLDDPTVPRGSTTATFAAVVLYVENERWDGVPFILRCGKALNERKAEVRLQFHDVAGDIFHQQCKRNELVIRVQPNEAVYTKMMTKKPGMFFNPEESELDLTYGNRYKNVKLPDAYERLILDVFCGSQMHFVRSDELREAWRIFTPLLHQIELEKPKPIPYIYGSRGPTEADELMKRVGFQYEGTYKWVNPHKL

H4 = assay: Luminescence Cell-Based Dose Response HTS to Identify Activators of 5'UTR Stem-Loop Driven Prion Protein mRNA Translation in H4 Neuroglioblastoma Cells. [Related pubchem assays: 1829 (Project Summary), 1814 (Primary HTS)]; format: functional; conditions: Homo sapiens
Genome polyprotein = Genome polyprotein (dengue virus type 2, UniProt P29990); assay: flavivirus cap methylation enzyme inhibition – biochemical, confirmation dose response, primary screen (AID 588689); format: functional
Chain of Genome polyprotein (P29990 2492-3391 limits assumed): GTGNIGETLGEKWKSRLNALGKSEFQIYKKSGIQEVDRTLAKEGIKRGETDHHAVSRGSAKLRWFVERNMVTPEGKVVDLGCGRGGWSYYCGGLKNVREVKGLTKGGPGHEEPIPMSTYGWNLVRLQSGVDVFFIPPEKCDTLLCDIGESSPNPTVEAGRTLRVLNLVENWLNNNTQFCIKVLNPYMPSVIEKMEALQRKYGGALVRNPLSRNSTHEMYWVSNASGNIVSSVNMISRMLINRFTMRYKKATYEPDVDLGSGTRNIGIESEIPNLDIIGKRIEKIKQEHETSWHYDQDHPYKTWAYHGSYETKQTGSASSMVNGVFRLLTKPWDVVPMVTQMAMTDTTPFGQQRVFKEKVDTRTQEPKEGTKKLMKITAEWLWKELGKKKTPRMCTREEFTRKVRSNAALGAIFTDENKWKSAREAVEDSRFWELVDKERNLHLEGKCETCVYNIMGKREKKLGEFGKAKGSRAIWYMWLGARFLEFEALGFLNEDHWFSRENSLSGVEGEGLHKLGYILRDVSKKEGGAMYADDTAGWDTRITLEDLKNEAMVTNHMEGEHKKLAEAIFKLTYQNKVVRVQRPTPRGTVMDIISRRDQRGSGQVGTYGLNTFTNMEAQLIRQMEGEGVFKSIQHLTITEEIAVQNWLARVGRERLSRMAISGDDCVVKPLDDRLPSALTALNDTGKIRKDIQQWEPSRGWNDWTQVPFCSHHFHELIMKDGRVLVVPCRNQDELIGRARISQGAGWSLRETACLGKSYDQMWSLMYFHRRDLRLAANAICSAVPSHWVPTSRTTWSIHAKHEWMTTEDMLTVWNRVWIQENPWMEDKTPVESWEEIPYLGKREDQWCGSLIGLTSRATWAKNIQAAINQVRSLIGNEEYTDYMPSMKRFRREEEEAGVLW

[15] = Luminescence Cell-Based Dose Response HTS to Identify Activators of Luciferase Translation or Activity in H4 […] Cells. [Related pubchem assays: 1829 (Project Summary), 1814 (Primary HTS)]; format: functional
[16] = Luminescence Cell-Based Dose Confirmation HTS to Identify Activators of 5'UTR Stem-Loop Driven Alpha-Synuclein mRNA Translation in H4 Neuroglioblastoma Cells. [Related pubchem assays: 1829 (Project Summary), 1814 (Primary HTS)]; format: functional
Paired box protein Pax-8 = Paired box protein Pax-8 (Homo sapiens, UniProt Q06710); assay: PAX8 transcriptional activity inhibition in RMG-I – RMG-I cells, luciferase, cherry-pick, dose response (AID 687027); format: functional, cell-based;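 also: luciferase reporter driven by Pax8 target thyroperoxidase promoter measured by SteadyGlo luminescence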
Chain of Paired box protein Pax-8 (Q06710 whole entry): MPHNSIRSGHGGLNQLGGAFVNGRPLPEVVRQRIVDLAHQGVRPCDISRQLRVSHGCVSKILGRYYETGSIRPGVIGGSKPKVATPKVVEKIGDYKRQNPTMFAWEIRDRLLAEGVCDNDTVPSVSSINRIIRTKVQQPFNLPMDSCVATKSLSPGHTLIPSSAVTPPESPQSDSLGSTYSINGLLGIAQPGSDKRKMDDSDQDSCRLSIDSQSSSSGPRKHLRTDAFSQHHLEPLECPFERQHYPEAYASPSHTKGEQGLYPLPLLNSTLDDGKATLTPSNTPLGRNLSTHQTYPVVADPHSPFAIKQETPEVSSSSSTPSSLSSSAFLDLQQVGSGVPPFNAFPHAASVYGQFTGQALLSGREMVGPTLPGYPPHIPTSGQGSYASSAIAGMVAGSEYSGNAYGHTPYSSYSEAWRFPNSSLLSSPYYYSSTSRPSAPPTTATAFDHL

[17] = general mammalian cell viability loss – activator set, cherry-pick, cytotoxicity control for miR-122 modulator project, dose response (AID 720690); format: functional, cell-based;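 also: HEK293T human cells scored for general mammalian cytotoxicity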
[18] = general mammalian cell viability loss – inhibitor set, cherry-pick, set 2, cytotoxicity control for miR-122 modulator project, dose response (AID 720697); format: functional, cell-based
[19] = activation of miR-122 Renilla sensor silencing – cell-based, Huh7 psiCHECK-miR122, Renilla luciferase, cherry-picked, dose response (AID 651956); format: functional;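 also: huh7 hepatoma cells stably carrying a psiCHECK-2 miR-122 sensor plasmid; renilla luciferase signal reporting endogenous miR-122 activity after 48 h compound exposure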
[20] = OVCAR-3 cell viability loss – plate reader, dry powder samples, PAX8 inhibitor project, dose response (AID 743044); format: functional, cell-based
[21] = target: T2, Long-chain-fatty-acid--AMP ligase FadD28 (Mycobacterium tuberculosis, UniProt P9WQ59); assay: Fluorescence polarization aasay to screen for inhibitors that compete for the binding of FadD28 to a bisubstrate Measured in Biochemical System Using Plate Reader - 2147-01_Inhibitor_Dose_CherryPick_Activity.; format: functional, Mycobacterium tuberculosis H37Rv
T2 sequence (P9WQ59 whole entry): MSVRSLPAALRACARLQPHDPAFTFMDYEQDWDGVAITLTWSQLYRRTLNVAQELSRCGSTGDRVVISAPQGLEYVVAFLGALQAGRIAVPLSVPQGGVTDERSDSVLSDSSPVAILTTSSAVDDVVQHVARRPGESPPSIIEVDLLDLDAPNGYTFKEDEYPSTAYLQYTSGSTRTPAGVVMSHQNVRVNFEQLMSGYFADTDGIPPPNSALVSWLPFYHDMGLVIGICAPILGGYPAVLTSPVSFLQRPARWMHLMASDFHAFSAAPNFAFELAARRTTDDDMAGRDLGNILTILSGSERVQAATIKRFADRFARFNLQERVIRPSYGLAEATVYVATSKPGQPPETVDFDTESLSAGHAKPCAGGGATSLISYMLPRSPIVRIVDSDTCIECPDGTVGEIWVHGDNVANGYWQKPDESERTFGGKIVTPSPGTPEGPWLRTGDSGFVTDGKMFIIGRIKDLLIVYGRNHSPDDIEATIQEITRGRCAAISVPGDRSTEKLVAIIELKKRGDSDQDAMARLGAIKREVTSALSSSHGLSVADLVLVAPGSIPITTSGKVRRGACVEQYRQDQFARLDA

[22] = blockers of CRF-binding protein–CRF-R2 complex – cell-based, uHTS hits, 384-well, dose response (AID 651639); format: functional, Homo sapiens; conditions: read-out: IC50_Mean
[23] = target: T3, Corticotropin-releasing factor receptor 2/Corticotropin-releasing factor-binding protein (Homo sapiens, UniProt P24387+Q13324); assay: Dose Response confirmation of uHTS hits for small molecule antagonists of the CRF-binding protein and CRF-R2 receptor complex.; format: functional; conditions: read-out: IC50_Mean
T3 sequence (Q13324 whole entry): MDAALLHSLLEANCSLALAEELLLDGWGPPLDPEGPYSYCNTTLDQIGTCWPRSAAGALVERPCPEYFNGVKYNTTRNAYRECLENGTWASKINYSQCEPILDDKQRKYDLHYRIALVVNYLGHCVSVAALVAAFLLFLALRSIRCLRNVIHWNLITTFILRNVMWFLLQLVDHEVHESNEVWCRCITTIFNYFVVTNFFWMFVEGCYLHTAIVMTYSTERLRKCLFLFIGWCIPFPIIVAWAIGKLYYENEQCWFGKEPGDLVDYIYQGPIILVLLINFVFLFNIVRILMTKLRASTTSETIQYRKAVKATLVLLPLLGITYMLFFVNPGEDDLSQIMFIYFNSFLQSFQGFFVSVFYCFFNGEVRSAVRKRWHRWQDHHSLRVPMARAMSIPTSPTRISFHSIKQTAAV
T3 sequence (P24387 whole entry): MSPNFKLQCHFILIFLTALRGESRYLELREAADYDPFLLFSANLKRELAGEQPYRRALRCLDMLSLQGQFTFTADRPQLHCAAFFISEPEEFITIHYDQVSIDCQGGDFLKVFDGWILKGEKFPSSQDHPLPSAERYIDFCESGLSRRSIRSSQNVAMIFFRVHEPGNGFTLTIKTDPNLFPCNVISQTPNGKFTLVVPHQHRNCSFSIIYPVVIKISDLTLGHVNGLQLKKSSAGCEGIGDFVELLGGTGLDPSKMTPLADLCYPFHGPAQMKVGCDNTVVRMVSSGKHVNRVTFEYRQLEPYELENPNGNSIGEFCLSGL

[24] = target: T3, Corticotropin-releasing factor receptor 2/Corticotropin-releasing factor-binding protein; assay: activators of CRF receptor 2 with binding protein – uHTS hits, confirmation (AID 602473); format: functional; conditions: read-out: EC50_Mean
Aminopeptidase N = target: T4, Aminopeptidase N (Plasmodium falciparum FcB1/Columbia, UniProt O96935); assay: malaria alanyl aminopeptidase activity blockers – biochemical, fluorogenic H-Leu-NHMec substrate, 1536-well (AID 1445); parameters: species or system Plasmodium falciparum 3D7, 3D7
T4 sequence (O96935 whole entry): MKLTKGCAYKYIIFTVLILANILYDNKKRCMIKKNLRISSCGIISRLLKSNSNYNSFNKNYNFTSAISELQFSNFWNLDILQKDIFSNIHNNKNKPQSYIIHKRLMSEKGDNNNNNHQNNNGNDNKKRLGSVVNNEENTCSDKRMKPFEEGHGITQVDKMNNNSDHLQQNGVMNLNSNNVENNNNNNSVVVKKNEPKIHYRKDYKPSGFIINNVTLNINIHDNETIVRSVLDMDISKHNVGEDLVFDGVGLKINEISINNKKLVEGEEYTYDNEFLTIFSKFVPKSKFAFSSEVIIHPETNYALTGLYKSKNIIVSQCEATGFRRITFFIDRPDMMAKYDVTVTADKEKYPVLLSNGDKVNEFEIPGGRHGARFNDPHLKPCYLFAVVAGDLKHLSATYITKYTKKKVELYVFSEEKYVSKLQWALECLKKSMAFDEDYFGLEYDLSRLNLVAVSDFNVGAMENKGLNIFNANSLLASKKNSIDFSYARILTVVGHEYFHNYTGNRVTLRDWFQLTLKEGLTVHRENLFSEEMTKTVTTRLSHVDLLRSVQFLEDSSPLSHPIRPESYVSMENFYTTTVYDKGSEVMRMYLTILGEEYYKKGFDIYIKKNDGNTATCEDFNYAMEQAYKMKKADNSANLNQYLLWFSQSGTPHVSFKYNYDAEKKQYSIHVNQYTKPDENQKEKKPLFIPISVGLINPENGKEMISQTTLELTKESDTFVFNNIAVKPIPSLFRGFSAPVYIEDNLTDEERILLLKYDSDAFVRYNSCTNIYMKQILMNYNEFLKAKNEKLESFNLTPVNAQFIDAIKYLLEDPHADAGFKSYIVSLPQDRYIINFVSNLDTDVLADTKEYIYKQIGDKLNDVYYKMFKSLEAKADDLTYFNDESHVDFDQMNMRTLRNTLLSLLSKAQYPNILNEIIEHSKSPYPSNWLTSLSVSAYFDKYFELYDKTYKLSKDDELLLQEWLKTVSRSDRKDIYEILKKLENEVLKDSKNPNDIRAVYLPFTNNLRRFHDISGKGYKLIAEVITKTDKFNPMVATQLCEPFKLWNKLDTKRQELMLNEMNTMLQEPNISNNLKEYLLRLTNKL

Chain of Mu-type opioid receptor (P35372 whole entry): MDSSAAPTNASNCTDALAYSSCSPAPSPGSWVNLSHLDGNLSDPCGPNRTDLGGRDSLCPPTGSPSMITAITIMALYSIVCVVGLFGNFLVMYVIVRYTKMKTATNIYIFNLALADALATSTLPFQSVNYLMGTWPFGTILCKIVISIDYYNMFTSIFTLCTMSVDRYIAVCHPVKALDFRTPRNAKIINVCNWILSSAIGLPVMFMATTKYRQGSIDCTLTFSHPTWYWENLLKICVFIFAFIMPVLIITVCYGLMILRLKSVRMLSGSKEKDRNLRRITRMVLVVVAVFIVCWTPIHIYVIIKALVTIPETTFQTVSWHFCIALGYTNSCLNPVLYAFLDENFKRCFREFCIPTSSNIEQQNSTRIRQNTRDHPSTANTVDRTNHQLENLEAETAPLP

Structure (SMILES): COc1cccc(-c2nc(CN3CCN(C(=O)c4ccco4)CC3)c(C)o2)c1OC
- EC50 (Mu-type opioid receptor): 92.5 µM (inactive)
- EC50 [1]: 20 µM (inactive)

Structure (SMILES): COc1cc(NC(=O)c2cc3ccccc3o2)c(OC)cc1Cl
- IC50 [2]: 3.98 µM (active)
- EC50 [3]: > 29.9 µM (inactive)
- EC50 [4]: > 29.9 µM (inactive)
- IC50 [5]: > 29.9 µM (inactive)

Structure (SMILES): O=C(COC(=O)c1nc(Cl)c(Cl)c(Cl)c1Cl)NCc1ccccc1
- EC50 [6]: > 91.1 µM (inactive)
- EC50 [7]: > 91.1 µM (inactive)

Structure (SMILES): COc1cc(C(=O)CCN2CCC(c3ccccc3)C2)cc(OC)c1OC (stereo not given)
- EC50 [8]: 0.242 µM (active)
- IC50 [9]: 2.35 µM (active)
- IC50 (cells [10]): > 29.9 µM (inactive)
- CC50 [11]: > 40 µM (active)
- EC50 (cells [12]): > 29.9 µM (inactive)

Structure (SMILES): CCOC(=O)[C@]12CCC=C1N(Cc1ccc3c(c1)OCO3)C(=O)[C@H](CC(=O)NCCc1ccccc1OC)C2
- EC50 [8]: 7.51 µM (active)
- IC50 [9]: 6.46 µM (active)
- IC50 (cells [10]): > 29.9 µM (inactive)
- EC50 (cells [12]): > 29.9 µM (inactive)

Structure (SMILES): CC(C)c1cc2c(c(O)c1O)[C@@]13CCCC(C)(C)C1CC2OC3=O (stereo not given in full)
- IC50 [13]: 2.59 µM (active)
- IC50 [14]: > 80 µM (inactive)
- EC50 (H4): > 120 µM (not active)
- IC50 (Genome polyprotein): 84.4 µM (active)
- EC50 [15]: > 60 µM (not active)
- EC50 [16]: 71.2 µM (active)

Structure (SMILES): COc1ccc(CN(C)C[C@@H]2OCCCC[C@H](C)Oc3ccc(NC(=O)Nc4ccc(C(F)(F)F)cc4)cc3C(=O)N([C@H](C)CO)C[C@@H]2C)cc1
- AC50 (Paired box protein Pax-8): 20.1 µM (active)
- AC50 [17]: 14.5 µM (active)
- AC50 [18]: 12 µM (active)
- AC50 [19]: 17.5 µM (active)
- AC50 [20]: 44.6 µM (active)

Structure (SMILES): COc1cccc(NC(=O)c2ccc(CN3CCN(c4ccccc4)CC3)cc2)c1
- EC50 (Mu-type opioid receptor): 92.5 µM (inactive)
- EC50 [1]: 4.28 µM (active)

Structure (SMILES): COc1ccc(-c2c(C#Cc3ccsc3)c3cc(-c4ccc(C(N)=O)cc4)ccc3n2C)cc1
- IC50 [2]: 0.233 µM (active)
- EC50 [3]: > 29.9 µM (inactive)
- EC50 [4]: > 29.9 µM (inactive)
- IC50 [5]: > 29.9 µM (inactive)

Structure (SMILES): C=CCOc1ccc(/C=C2\SC(=S)N(C(C(=O)O)c3ccccc3)C2=O)cc1 (stereo not given)
- AC50 [21]: 4.48 µM (active)
- IC50 [22]: 14.7 µM (active)
- IC50 [23]: 4.06 µM (active)
- EC50 [24]: 33.2 µM (active)
- IC50 (Aminopeptidase N): 33.8 µM (active)
- IC50 (Genome polyprotein): 40.2 µM (active)
